# According to patent publication US20260000692A1, “Substituted N-(Pyridin-2-yl)Acetamide Derivatives as CDK12/13 Inhibitors” (Aurigene Oncology Limited, priority 2022, published 2026):
# Read-outs that look alike come from different tables or passages of the source.
# Target: CDK12 (Homo sapiens, UniProt Q9NYV4)
# Experiment: Biochemical assay for CDK12 (LANCE TR-FRET, IC50 determination)
# Conditions: for IC50: CDK12, IC50 class; for inhibition at 10 µM: read-out: CDK12 % Inhibition @ 10 μM
# Experimental: Biochemical Assay for CDK12 (IC50 Determination):
# The inhibitory activity of the test compounds was assessed by the LANCE TR-FRET assay, which detects the ATP-dependent phosphorylation of an ULight-4E-BP1 (Thr37/Thr46) substrate peptide (100 nM) by CDK12 (30 nM). Briefly, the enzyme reaction was run in reaction buffer (25 mM HEPES (pH 7.5), 10 mM MgCl2, […], 0.01% Triton x, 1 mM DTT). The assay was performed in 384-well plate format. The end concentration of the ATP substrate was […], and that of the ULight-4E-BP1 (Thr37/Thr46) substrate peptide was 100 nM, and of CDK12 was 30 nM. Pre-incubation of the compound and enzyme was performed for 60 min at room temperature. After 60 min incubation at room temperature, the reaction was terminated by the addition of 40 mM EDTA and 0.5 nM Eu-labeled anti-phospho-eIF4E-binding protein (Thr37/46) antibody in LANCE detection buffer. Time-resolved fluorescence (excitation, 320 nm; emission donor, 615 nm; emission acceptor, 665 nm) was monitored by using 2030 multilabel reader Victor5 (PerkinElmer). The Fluorescence emission of the samples were measured and the ratio was plotted against the compound concentration to generate the dose response curve. The IC50 values were derived by fitting a sigmoidal dose-response curve to a plot of assay readout over inhibitor concentration. All fits were computed with the program Prism 5.03 (Graph Pad Software, San Diego, CA). The % inhibition values at […] were calculated with respect to enzyme activity.
# CDK12, sequence (Q9NYV4 whole entry): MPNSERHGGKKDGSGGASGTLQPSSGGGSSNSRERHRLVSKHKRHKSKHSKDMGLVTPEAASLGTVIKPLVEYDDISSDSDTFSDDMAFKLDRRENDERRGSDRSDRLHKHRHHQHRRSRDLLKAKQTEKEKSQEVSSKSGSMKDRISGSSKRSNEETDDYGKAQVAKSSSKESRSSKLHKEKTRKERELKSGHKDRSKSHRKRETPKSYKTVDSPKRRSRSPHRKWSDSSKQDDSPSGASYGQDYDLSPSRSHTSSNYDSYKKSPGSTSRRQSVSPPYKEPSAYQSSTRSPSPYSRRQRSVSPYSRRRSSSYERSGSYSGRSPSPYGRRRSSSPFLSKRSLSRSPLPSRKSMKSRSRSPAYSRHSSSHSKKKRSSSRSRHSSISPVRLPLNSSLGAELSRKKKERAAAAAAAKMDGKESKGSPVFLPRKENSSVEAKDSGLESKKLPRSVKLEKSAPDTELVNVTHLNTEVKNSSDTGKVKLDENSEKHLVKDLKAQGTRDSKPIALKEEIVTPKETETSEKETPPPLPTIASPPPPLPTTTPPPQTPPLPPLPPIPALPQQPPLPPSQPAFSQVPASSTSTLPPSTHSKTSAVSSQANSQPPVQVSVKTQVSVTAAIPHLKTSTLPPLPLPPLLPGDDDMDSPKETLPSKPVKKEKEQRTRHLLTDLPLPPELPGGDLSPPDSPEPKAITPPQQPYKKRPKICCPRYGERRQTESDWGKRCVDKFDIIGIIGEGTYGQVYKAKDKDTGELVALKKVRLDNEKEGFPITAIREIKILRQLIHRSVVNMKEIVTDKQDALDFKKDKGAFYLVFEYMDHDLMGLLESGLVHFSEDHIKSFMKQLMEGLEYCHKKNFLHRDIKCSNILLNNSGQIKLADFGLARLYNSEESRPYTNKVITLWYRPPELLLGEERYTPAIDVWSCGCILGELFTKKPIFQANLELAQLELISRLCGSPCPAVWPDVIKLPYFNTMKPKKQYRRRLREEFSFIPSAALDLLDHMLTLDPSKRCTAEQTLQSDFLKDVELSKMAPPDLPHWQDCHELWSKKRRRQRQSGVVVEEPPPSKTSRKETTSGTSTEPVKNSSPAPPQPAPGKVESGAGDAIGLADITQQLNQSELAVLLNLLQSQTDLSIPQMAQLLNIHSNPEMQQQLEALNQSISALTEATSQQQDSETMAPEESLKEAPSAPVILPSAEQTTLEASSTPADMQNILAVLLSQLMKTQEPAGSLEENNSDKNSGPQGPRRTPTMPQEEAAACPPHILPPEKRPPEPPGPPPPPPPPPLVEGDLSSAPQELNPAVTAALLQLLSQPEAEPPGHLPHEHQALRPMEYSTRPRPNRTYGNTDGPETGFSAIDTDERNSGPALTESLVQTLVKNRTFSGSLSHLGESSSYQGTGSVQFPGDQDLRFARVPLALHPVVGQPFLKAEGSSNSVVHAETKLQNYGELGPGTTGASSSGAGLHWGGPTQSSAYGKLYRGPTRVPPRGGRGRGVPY
# CDK12, sequence (O75909 whole entry partner): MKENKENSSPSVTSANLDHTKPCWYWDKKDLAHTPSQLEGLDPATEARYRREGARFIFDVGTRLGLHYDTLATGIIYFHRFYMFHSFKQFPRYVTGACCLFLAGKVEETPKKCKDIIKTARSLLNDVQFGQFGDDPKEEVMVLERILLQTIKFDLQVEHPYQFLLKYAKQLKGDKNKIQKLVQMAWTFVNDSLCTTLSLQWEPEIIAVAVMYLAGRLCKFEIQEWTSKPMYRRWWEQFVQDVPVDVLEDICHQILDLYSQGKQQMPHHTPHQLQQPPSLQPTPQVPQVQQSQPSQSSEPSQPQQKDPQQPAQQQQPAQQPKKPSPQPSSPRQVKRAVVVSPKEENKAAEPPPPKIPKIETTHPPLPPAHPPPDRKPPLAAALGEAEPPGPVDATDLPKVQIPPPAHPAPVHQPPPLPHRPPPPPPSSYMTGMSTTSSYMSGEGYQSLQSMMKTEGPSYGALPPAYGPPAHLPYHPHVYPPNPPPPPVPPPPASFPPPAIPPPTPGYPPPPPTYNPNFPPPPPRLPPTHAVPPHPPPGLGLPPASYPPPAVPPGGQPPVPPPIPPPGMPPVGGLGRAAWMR
Structure (SMILES),IC50 (read-out: IC50 μM (in range)),inhibition at 10 µM (compound at 10 μM),"CDK12 % Inhibition @ 10 μM (compound at 10 μM, 10 µM)",IC50 (IC50 μM (in range)),inhibition at 10 µM
"CNC(=O)C(C)Oc1cc(NC(=O)Cc2ccc(C3=CCN(C#N)CC3)nc2)ncc1Cl (single isomer, unassigned) [Compound 2, 2-((5-chloro-2-(2-(1′-cyano-1′,2′,3′,6′-tetrahydro-[2,4′-bipyridin]-5-yl)acetamido)pyridin-4-yl)oxy)-N-methylpropanamide]",< 0.01 µM,90%,–,–,–
"N#CN1CCCC(c2ccc(CC(=O)Nc3cc(O[C@@H]4CCOC4)c(Cl)cn3)cn2)C1 (single isomer, unassigned) [Compound 94]",0.01 to 0.1 µM,–,77%,–,–
"CNC(=O)C(C)Oc1cc(NC(=O)Cc2ccc(-c3ccc(C#N)nc3)nc2)ncc1Cl (centres unmarked) [Compound 143, 2-((5-chloro-2-(2-(6′-cyano-[2,3′-bipyridin]-5-yl)acetamido)pyridin-4-yl)oxy)-N-methylpropanamide]",0.01 to 0.1 µM,92%,–,–,–
"CNC(=O)C(C)Oc1cc(NC(=O)Cc2ccc(C3CCCN(C#N)C3)nc2)ncc1Cl (single isomer, unassigned) [Compound 86, 2-((5-chloro-2-(2-(6-(1-cyanopiperidin-3-yl)pyridin-3-yl)acetamido)pyridin-4-yl)oxy)-N-methylpropanamide]",> 0.1 µM,84%,–,–,–
"CN(C)C(=O)Oc1cc(NC(=O)Cc2ccc(C3=CCCN(C#N)C3)nc2)ncc1Cl [Compound 77, 5-chloro-2-(2-(1′-cyano-1′,2′,5′,6′-tetrahydro-[2,3′-bipyridin]-5-yl)acetamido)pyridin-4-yl dimethylcarbamate]",–,–,–,< 0.01 µM,79%
"COc1cc(NC(=O)Cc2ccc(-c3cccc(C#N)n3)c(F)c2)ncc1Cl [Compound 153, N-(5-chloro-4-methoxypyridin-2-yl)-2-(4-(6-cyanopyridin-2-yl)-3-fluorophenyl)acetamide]",–,34%,–,–,–
"COc1cc(NC(=O)Cc2ccc(C3=CCN(C#N)C(C)C3)nc2)ncc1Cl (single isomer, unassigned) [Compound 66, N-(5-chloro-4-methoxypyridin-2-yl)-2-(1′-cyano-2′-methyl-1′,2′,3′,6′-tetrahydro-[2,4′-bipyridin]-5-yl)acetamide]",0.01 to 0.1 µM,88%,–,–,–
"COc1cc(NC(=O)Cc2ccc(C3=CCCN(C#N)C3)cc2F)ncc1Cl [Compound 113, N-(5-chloro-4-methoxypyridin-2-yl)-2-(4-(1-cyano-1,2,5,6-tetrahydropyridin-3-yl)-2-fluorophenyl)acetamide]",0.01 to 0.1 µM,92%,–,–,–
"CC1(C)CC(Oc2cc(NC(=O)Cc3ccc(C4=CCN(C#N)CC4)nc3)ncc2Cl)CCN1 (centres unmarked) [Compound 139, N-(5-chloro-4-((2,2-dimethylpiperidin-4-yl)oxy)pyridin-2-yl)-2-(1′-cyano-1′,2′,3′,6′-tetrahydro-[2,4′-bipyridin]-5-yl)acetamide]",0.01 to 0.1 µM,95%,–,–,–
"N#CN1CCC=C(c2ccc(CC(=O)Nc3ccc(C4CC4)cn3)cn2)C1 [Compound 106, 2-(1′-cyano-1′,2′,5′,6′-tetrahydro-[2,3′-bipyridin]-5-yl)-N-(5-cyclopropylpyridin-2-yl)acetamide]",< 0.01 µM,90%,–,–,–
"COc1cc(NC(=O)Cc2ccc(-c3ccnc(C#N)c3)nc2)ncc1Cl [Compound 142, N-(5-chloro-4-methoxypyridin-2-yl)-2-(2′-cyano-[2,4′-bipyridin]-5-yl)acetamide]",0.01 to 0.1 µM,–,–,–,–
"CC(CN(C)C)Oc1cc(NC(=O)Cc2ccc(C3=CCN(C#N)CC3)nc2)ncc1Cl (centres unmarked) [Compound 31, N-(5-chloro-4-((1-(dimethylamino)propan-2-yl)oxy)pyridin-2-yl)-2-(1′-cyano-1′,2′,3′,6′-tetrahydro-[2,4′-bipyridin]-5-yl)acetamide]",< 0.01 µM,89%,–,–,–
"COCCOc1cc(NC(=O)Cc2ccc(C3=CCN(C#N)CC3)nc2)ncc1Cl [Compound 22, N-(5-chloro-4-(2-methoxyethoxy)pyridin-2-yl)-2-(1′-cyano-1′,2′,3′,6′-tetrahydro-[2,4′-bipyridin]-5-yl)acetamide]",< 0.01 µM,91%,–,–,–
"CN1CCC[C@@H](Oc2cc(NC(=O)Cc3ccc(C4=CCCN(C#N)C4)nc3)ncc2Cl)C1 [Compound 46, (R)-N-(5-chloro-4-((1-methylpiperidin-3-yl)oxy)pyridin-2-yl)-2-(1′-cyano-1′,2′,5′,6′-tetrahydro-[2,3′-bipyridin]-5-yl)acetamide]",< 0.01 µM,88%,–,–,–
"CNC(=O)C(C)Oc1cc(NC(=O)Cc2ccc(C3CCN(C#N)CC3)nc2)ncc1Cl (single isomer, unassigned) [Compound 83, 2-((5-chloro-2-(2-(6-(1-cyanopiperidin-4-yl)pyridin-3-yl)acetamido)pyridin-4-yl)oxy)-N-methylpropanamide]",0.01 to 0.1 µM,84%,–,–,–

# Continued, in another order:
IC50 (read-out: IC50 μM (in range)),inhibition at 10 µM (compound at 10 μM),"CDK12 % Inhibition @ 10 μM (compound at 10 μM, 10 µM)",Structure (SMILES),IC50 (IC50 μM (in range)),inhibition at 10 µM
< 0.01 µM,92%,–,"N#CN1CC=C(c2ccc(CC(=O)Nc3cc(C4(O)COC4)c(Cl)cn3)cn2)CC1 [Compound 17, N-(5-chloro-4-(3-hydroxyoxetan-3-yl)pyridin-2-yl)-2-(1′-cyano-1′,2′,3′,6′-tetrahydro-[2,4′-bipyridin]-5-yl)acetamide]",–,–
< 0.01 µM,95%,–,"COC[C@H](C)Oc1cc(NC(=O)Cc2ccc(C3=CCCN(C#N)C3)nc2)ncc1Cl [Compound 35, (S)-N-(5-chloro-4-((1-methoxypropan-2-yl)oxy)pyridin-2-yl)-2-(1′-cyano-1′,2′,5′,6′-tetrahydro-[2,3′-bipyridin]-5-yl)acetamide]",–,–
< 0.01 µM,89%,–,"COc1cc(NC(=O)Cc2ccc(C3CCN(C#N)CC3)nc2)ncc1Cl [Compound 59, N-(5-chloro-4-methoxypyridin-2-yl)-2-(6-(1-cyanopiperidin-4-yl)pyridin-3-yl)acetamide]",–,–
< 0.01 µM,78%,–,"CNC(=O)C(C)Oc1cc(NC(=O)Cc2ccc(C3=CCCN(C#N)C3)nc2)ncc1Cl (single isomer, unassigned) [Compound 57, 2-((5-chloro-2-(2-(1′-cyano-1′,2′,5′,6′-tetrahydro-[2,3′-bipyridin]-5-yl)acetamido)pyridin-4-yl)oxy)-N-methylpropanamide]",–,–
< 0.01 µM,94%,–,COc1cc(NC(=O)Cc2ccc(C34CCN(C#N)CC3C4)nc2)ncc1Cl (centres unmarked) [Compound 133],–,–
< 0.01 µM,99%,–,"N#CN1CC=C(c2ccc(CC(=O)Nc3cc(O[C@@H]4CCOC4)c(Cl)cn3)cn2)CC1 [Compound 26, (R)-N-(5-chloro-4-((tetrahydrofuran-3-yl)oxy)pyridin-2-yl)-2-(1′-cyano-1′,2′,3′,6′-tetrahydro-[2,4′-bipyridin]-5-yl)acetamide]",–,–
< 0.01 µM,84%,–,"COc1cc(NC(=O)Cc2ccc(-c3cncc(C#N)n3)nc2)ncc1Cl [Compound 157, N-(5-chloro-4-methoxypyridin-2-yl)-2-(6-(6-cyanopyrazin-2-yl)pyridin-3-yl)acetamide]",–,–
< 0.01 µM,96%,–,"CC(C)(O)c1cc(NC(=O)Cc2ccc(C3=CCN(C#N)CC3)nc2)ncc1Cl [Compound 23, N-(5-chloro-4-(2-hydroxypropan-2-yl)pyridin-2-yl)-2-(1′-cyano-1′,2′,3′,6′-tetrahydro-[2,4′-bipyridin]-5-yl)acetamide]",–,–
